Laboratory results as given in PMC11003996 (Cell Discovery, 2024).
“And” between values parts separate entries of the source, which are not always exact repeats. Identical values can stand only once.

Assays:
[1] = tested on: SARS-CoV-2 3CLpro M49I in HEK 293T cells; type: cell-based
[2] = tested on: SARS-CoV-2 3CLpro T25V in HEK 293T cells; type: cell-based
SARS-CoV-2 3CLpro T25V = type: biochemical
SARS-CoV-2 3CLpro M49I = type: biochemical
SARS-CoV-2 3CLpro T25I = type: biochemical
[3] = tested on: SARS-CoV-2 3CLpro L50F/E166V in HEK 293T cells; type: cell-based

Compound	Inhibition of 3CLpro in HEK 293T cells: Fold change in IC50 (relative to WT) [1]	Inhibition of 3CLpro in HEK 293T cells: Fold change in IC50 (relative to WT) [2]	Fold change in IC50 (relative to WT) (SARS-CoV-2 3CLpro T25V)	Fold change in IC50 (relative to WT) (SARS-CoV-2 3CLpro M49I)	Fold change in IC50 (relative to WT) (SARS-CoV-2 3CLpro T25I)	Inhibition of 3CLpro in HEK 293T cells: Fold change in IC50 (relative to WT) [3]
Cn1cnc(Cn2c(=O)[nH]/c(=N\c3cc4cn(C)nc4cc3Cl)n(Cc3cc(F)c(F)cc3F)c2=O)n1 [ensitrelvir]	21.8 and ~20	3.3	5.7	4.5	3.2	
CC(C)(C)[C@H](NC(=O)C(F)(F)F)C(=O)N1C[C@H]2[C@@H]([C@H]1C(=O)N[C@H](C#N)C[C@@H]1CCNC1=O)C2(C)C [nirmatrelvir]						18.4
